Reference: patent US11166460B2, “α-amino acrylate microbicide, and preparation method therefor and uses thereof” (priority 2017, dated 2021)
Where two headings read alike, the source gives them in different places.

Tests used:
[1] = tested on: Phytophthora infestans (Mont) de Bary; test: microbe, parasite or virus in culture; type: cell-based; conditions: Phytophthora infestans
[2] = tested on: tobacco mosaic virus (TMV); test: Anti-TMV inactivation activity (inactivation mode), compound mixed with TMV before inoculation of tobacco leaves; type: in vivo; conditions: Tobacco mosaic virus, read-out: Anti-TMV activity, Inactivation effect (inhibition)
[3] = tested on: Cercospora arachidicola; test: Fungicidal activity, fungi growth rate method, CA; type: cell-based; conditions: Mycosphaerella arachidis, 50 μg/mL
[4] = tested on: tobacco mosaic virus (TMV); test: Anti-TMV inducing activity (induction mode), tobacco seedlings; type: in vivo; conditions: Tobacco mosaic virus, read-out: Anti-TMV activity, Induction effect (inhibition), 100 μg/mL, tobacco seedlings
[5] = tested on: Pellicularia sasakii; test: Fungicidal activity, fungi growth rate method, PS; type: cell-based; conditions: 50 μg/mL
[6] = tested on: Botrytis cinerea; test: Fungicidal activity, fungi growth rate method, BC; type: cell-based; conditions: Botrytis cinerea, 50 μg/mL
[7] = tested on: tobacco mosaic virus (TMV); test: Anti-TMV protective activity (protection mode), live friction inoculation on tobacco seedlings; type: in vivo; conditions: Tobacco mosaic virus, read-out: Anti-TMV activity, Protection effect (inhibition)
[8] = tested on: Physalospora piricola; test: Fungicidal activity, fungi growth rate method, PP; type: cell-based; conditions: 50 μg/mL
[9] = tested on: wheat Gibberella zeae; test: microbe, parasite or virus in culture; type: cell-based; conditions: Fusarium graminearum
[10] = tested on: Rhizoctonia cerealis; test: Fungicidal activity, fungi growth rate method, RC; type: cell-based; conditions: Ceratobasidium cereale, 50 μg/mL
[11] = tested on: tobacco mosaic virus (TMV); test: Anti-TMV curative activity (treatment mode), live friction inoculation on tobacco seedlings; type: in vivo; conditions: Tobacco mosaic virus, read-out: Anti-TMV activity, Curative effect (inhibition), 100 μg/mL, tobacco seedlings, checked on seventh day
[12] = tested on: Sclerotinia sclerotiorum; test: microbe, parasite or virus in culture; type: cell-based; conditions: Sclerotinia sclerotiorum, 50 μg/mL
[13] = tested on: Alternaria solani; test: Fungicidal activity, fungi growth rate method, AS; type: cell-based; conditions: Alternaria solani, 50 μg/mL
[14] = read-out: Fungicidal activity, inhibition, PI
[15] = read-out: Fungicidal activity, inhibition, CA
[16] = read-out: Fungicidal activity, inhibition, PS
[17] = read-out: Fungicidal activity, inhibition, BC
[18] = read-out: Fungicidal activity, inhibition, PP
[19] = read-out: Fungicidal activity, inhibition, GZ
[20] = read-out: Fungicidal activity, inhibition, RC
[21] = read-out: Fungicidal activity (inhibition) against SS: Sclerotinia sclerotiorum
[22] = read-out: Fungicidal activity, inhibition, SS
[23] = read-out: Fungicidal activity, inhibition, AS
[24] = read-out: Fungicidal activity (inhibition) against PI: Phytophthora infestans (Mont) de Bary
[25] = read-out: Fungicidal activity (inhibition) against CA: Cercospora arachidicola
[26] = read-out: Fungicidal activity (inhibition) against PS: Pellicularia sasakii
[27] = read-out: Fungicidal activity (inhibition) against BC: Botrytis cinerea
[28] = read-out: Fungicidal activity (inhibition) against PP: Physalospora piricola
[29] = read-out: Fungicidal activity (inhibition) against GZ: wheat Gibberella zeae
[30] = read-out: Fungicidal activity (inhibition) against RC: Rhizoctonia cerealis
[31] = read-out: Fungicidal activity (inhibition) against AS: Alternaria solani

SMILES | inhibition at 50 µg/mL [1, 14] | inhibition at 100 µg/mL [2] | inhibition at 50 µg/mL [3, 15] | inhibition at 100 µg/mL [4] | inhibition at 50 µg/mL [5, 16] | inhibition at 50 µg/mL [6, 17] | inhibition at 100 µg/mL [7] | inhibition at 50 µg/mL [8, 18] | inhibition at 50 µg/mL [9, 19] | inhibition at 50 µg/mL [10, 20] | inhibition at 100 µg/mL [11] | melting point | inhibition at 50 µg/mL [12, 21] | inhibition at 50 µg/mL [12, 22] | inhibition at 50 µg/mL [13, 23] | inhibition at 50 µg/mL [1, 24] | inhibition at 50 µg/mL [3, 25] | inhibition at 50 µg/mL [5, 26] | inhibition at 50 µg/mL [6, 27] | inhibition at 50 µg/mL [8, 28] | further results
CCOC(=O)c1csc(C2CCN(C(=O)/C(=C/c3ccccc3)NC(=O)c3ccccc3)CC2)n1 [Compound 30, (Z)-N-[1-[[[4-[2-(ethylthiazole-4-carboxylate)]]-1-piperidinyl]carbonyl]-2-phenylethenyl]benzamide] | 9% | 0% | 7% | 2% | 13% | 17% | 0% | 2% | 11% | 4% | 3% | 114 to 115 °C | 80 to 95% | 82% | 13% |  |  |  |  |  | 
O=C(N/C(=C\c1ccccc1)C(=O)N1CCC(c2nc(CO)cs2)CC1)c1ccccc1 [Compound 31, (Z)-N-[1-[[[4-[2-(4-hydroxymethylthiazol)]]-1-piperidinyl]carbonyl]-2-phenylethenyl]benzamide] | 24% | 0% | 23% | 33% | 5% | 7% | 0% | 0% | 7% | 16% | 0% | 118 to 120 °C |  | 56% | 21% |  |  |  |  |  | 
CNC(=O)/C(=C/c1ccccc1)NC(=O)c1ccccc1 [Compound 32, (Z)-N-[1-[(methylamino)carbonyl]-2-phenylethenyl]benzamide] | 16% | 25% | 16% | 10% | 13% | 11% | 58% | 12% | 6% | 4% | 0% | 185 to 187 °C | 80% | 80% | 5% | < 25% | < 25% | < 30% | ≤ 20% | < 20% | inhibition at 50 µg/mL [9, 29]: < 45%; inhibition at 50 µg/mL [10, 30]: < 20%; inhibition at 50 µg/mL [13, 31]: < 30%
CONC(=O)/C(=C/c1ccccc1)NC(=O)c1ccccc1 [Compound 33, (Z)-N-[1-[(methoxylamino)carbonyl]-2-phenylethenyl]benzamide] | 8% | 0% | 13% | 45% | 5% | 22% | 1% | 3% | 0% | 10% | 3% | 166 to 168 °C |  | 17% | 21% |  |  |  |  |  | 
COC(=O)[C@H](C)NC(=O)/C(=C/c1ccccc1)NC(=O)c1ccccc1 [Compound 34, (S,Z)-N-[1-[[1-(2-methyl propanoate)amino]carbonyl]-2-phenylethenyl]benzamide] | 5% | 0% | 16% | 50% | 0% | 24% | 0% | 0% | 16% | 3% | 0% | 147 to 148 °C |  | 56% | 21% |  |  |  |  |  | 
COC(=O)CCNC(=O)/C(=C/c1ccccc1)NC(=O)c1ccccc1 [Compound 35, (Z)-N-[1-[[1-(3-methyl propionate)amino]carbonyl]-2-phenylethenyl]benzamide] | 13% | 16% | 3% | 23% | 0% | 21% | 3% | 3% | 7% | 7% | 0% | 139 to 141 °C |  | 67% | 25% |  |  |  |  |  | 
COC(=O)CCCNC(=O)/C(=C/c1ccccc1)NC(=O)c1ccccc1 [Compound 36, (Z)-N-[1-[[1-(4-methylbutanoate)amino]carbonyl]-2-phenylethenyl]benzamide] | 2% | 0% | 10% | 41% | 0% | 10% | 13% | 0% | 0% | 16% | 36% | 110 to 111 °C |  | 50% | 21% |  |  |  |  |  | 
COC(=O)[C@H]1CCCN1C(=O)/C(=C/c1ccccc1)NC(=O)c1ccccc1 [Compound 37, (R,Z)-N-[1-[(2-methylpyrrolidinecarboxylate)]carbonyl-2-phenylethenyl]benzamide] | 5% | 0% | 13% | 40% | 6% | 21% | 2% | 0% | 23% | 13% | 25% | 155 to 157 °C |  | 56% | 17% |  |  |  |  |  | 
O=C(N/C(=C\c1ccccc1)C(=O)N1CCOCC1)c1ccccc1 [Compound 38, (Z)-N-[1-(4-morpholinylcarbonyl)-2-phenylethenyl]benzamide] | 11% | 0% | 7% | 46% | 13% | 4% | 38% | 0% | 6% | 9% | 0% | 147 to 149 °C | 77% | 77% | 8% | < 25% | < 25% | < 30% | ≤ 20% | < 20% | inhibition at 50 µg/mL [9, 29]: < 45%; inhibition at 50 µg/mL [10, 30]: < 20%; inhibition at 50 µg/mL [13, 31]: < 30%
O=C(NC1CC1)/C(=C/c1ccccc1)NC(=O)c1ccccc1 [Compound 39, (Z)-N-[1-[(cyclopropylamino)carbonyl]-2-phenylethenyl]benzamide] | 11% | 0% | 13% | 34% | 6% | 9% | 10% | 3% | 13% | 3% | 18% | 185 to 186 °C | 67% | 67% | 17% | < 25% | < 25% | < 30% | ≤ 20% | < 20% | inhibition at 50 µg/mL [9, 29]: < 45%; inhibition at 50 µg/mL [10, 30]: < 20%; inhibition at 50 µg/mL [13, 31]: < 30%
